Tested on: synthesis of dopamine
Experiment: Inhibition of dopa accumulation in GBL/NSD-1015-treated rats (dopamine autoreceptor agonism; Walters and Roth)
Type: in vivo, rats (male, Sprague-Dawley)
Details: sc, limbic (L) brain tissue, rat, read-out: Dopa Accumulation (% inhib. @ 10 mg/kg, sc), limbic (L)
Description: The effect of the compounds of the invention on the synthesis of dopamine was established by the method of Walters and Roth, Naunyn-Schmiedeberg's Arch. […] Following perchloric acid extraction of the tissue, the extracts were placed over alumina columns to collect and concentrate dopa and other catechols. This eluate was then subjected to HPLC analysis using electrochemical detection to quantify the levels of dopa present. Dopamine autoreceptor agonists, under the conditions used above, inhibit dopa accumulation.

SMILES	inhibition at 10 mg/kg
Nc1cccc(OCCCNCC2COc3ccccc3O2)c1 (centres unmarked) [Example 1, N-[3-(3-Aminophenoxy)propyl]-2,3-dihydro-1,4-benzodioxin-2-methanamine]	33%
COc1cccc2c1OCC(CNCCCOc1cccc(N)c1)O2 (centres unmarked) [Example 2, N-[3-(3-Aminophenoxy)propyl]-2,3-dihydro-5-methoxy-1,4-benzodioxin-2-methanamine]	-22%
Nc1cccc(OCCCNCC2COc3ccc(O)cc3O2)c1 (centres unmarked) [Example 3, N-[3-(3-Aminophenoxy)propyl]-2,3-dihydro-7-hydroxy-1,4-benzodioxin-2-methanamine]	64%
Nc1cccc(OCCCNC[C@H]2COc3ccc(O)cc3O2)c1 [Example 4, (S)-N-[3-(3-Aminophenoxy)propyl]-2,3-dihydro-7-hydroxy-1,4-benzodioxin-2-methanamine]	70%
Nc1cccc(OCCCNCC2COc3cc(O)ccc3O2)c1 (centres unmarked) [Example 5, N-[3-(3-Aminophenoxy)propyl]-2,3-dihydro-6-hydroxy-1,4-benzodioxin-2-methanamine]	31%
Nc1cccc(OCCCNCC2COc3c(O)cccc3O2)c1 (centres unmarked) [Example 6, N-[3-(3-Aminophenoxy)propyl]-2,3-dihydro-5-hydroxy-1,4-benzodioxin-2-methanamine]	23%
Nc1cccc(OCCCNC[C@@H]2COc3ccc(O)cc3O2)c1 [Example 7, (R)-N-[3-(3-Aminophenoxy)propyl]-2,3-dihydro-7-hydroxy-1,4-benzodioxin-2-methanamine]	27%
COc1ccc2c(c1)OC(CNCCCOc1cccc(N)c1)CO2 (centres unmarked) [Example 8, N-[3-(3-Aminophenoxy)propyl]-2,3-dihydro-7-methoxy-1,4-benzodioxin-2-methanamine]	42.9%
Nc1cccc(OCCCNCC2COc3cc4c(cc3O2)OCO4)c1 (centres unmarked) [Example 10, N-[3-(3-Aminophenoxy)propyl]-2,3-dihydro-6,7-methylenedioxy-1,4-benzodioxin-2-methanamine]	70.9%
COc1cccc2c1OC(CNCCCOc1cccc(N)c1)CO2 (centres unmarked) [Example 11, N-[3-(3-Aminophenoxy)propyl]-2,3-dihydro-8-methoxy-1,4-benzodioxin-2-methanamine]	13%
Nc1cccc(OCCCNCC2COc3cccc(O)c3O2)c1 (centres unmarked) [Example 12, N-[3-(3-Aminophenoxy)propyl]-2,3-dihydro-8-hydroxy-1,4-benzodioxin-2-methanamine]	17.4%
Nc1cccc(OCCCNCC2COc3ccc(Cl)cc3O2)c1 (centres unmarked) [Example 13, N-[3-(3-Aminophenoxy)propyl]-2,3-dihydro-7-chloro-1,4-benzodioxin-2-methanamine]	9.1%
COc1cc2c(cc1OC)OC(CNCCCOc1cccc(N)c1)CO2 (centres unmarked) [Example 14, N-[3-(3-Aminophenoxy)propyl]-2,3-dihydro-6,7-dimethoxy-1,4-benzodioxin-2-methanamine]	53.7%
COc1ccc2c(c1OC)OCC(CNCCCOc1cccc(N)c1)O2 (centres unmarked) [Example 15, N-[3-(3-Aminophenoxy)propyl]-2,3-dihydro-5,6-dimethoxy-1,4-benzodioxin-2-methanamine]	7.6%
Nc1cccc(OCCCNCC2COc3ccc(F)cc3O2)c1 (centres unmarked) [Example 16, N-[3-(3-Aminophenoxy)propyl]-2,3-dihydro-7-fluoro-1,4-benzodioxin-2-methanamine]	59.9%
COc1ccc2c(c1)O[C@@H](CNCCCOc1cccc(N)c1)CO2 [Example 17, (S)-N-[3-(3-Aminophenoxy)propyl]-2,3-dihydro-7-methoxy-1,4-benzodioxin-2-methanamine]	28%
Cc1c(O)ccc2c1OC(CNCCCOc1cccc(N)c1)CO2 (centres unmarked) [Example 19, N-[3-(3-Aminophenoxy)propyl]-2,3-dihydro-7-hydroxy-8-methyl-1,4-benzodioxin-2-methanamine]	21%

Same assay, conditions: sc, striatal (S) brain tissue, rat, read-out: Dopa Accumulation (% inhib. @ 10 mg/kg, sc), striatal (S)

SMILES	inhibition at 10 mg/kg
Nc1cccc(OCCCNCC2COc3ccccc3O2)c1 (centres unmarked) [Example 1, N-[3-(3-Aminophenoxy)propyl]-2,3-dihydro-1,4-benzodioxin-2-methanamine]	46%
Nc1cccc(OCCCNCC2COc3ccc(O)cc3O2)c1 (centres unmarked) [Example 3, N-[3-(3-Aminophenoxy)propyl]-2,3-dihydro-7-hydroxy-1,4-benzodioxin-2-methanamine]	66%
Nc1cccc(OCCCNC[C@H]2COc3ccc(O)cc3O2)c1 [Example 4, (S)-N-[3-(3-Aminophenoxy)propyl]-2,3-dihydro-7-hydroxy-1,4-benzodioxin-2-methanamine]	71%
Nc1cccc(OCCCNCC2COc3cc(O)ccc3O2)c1 (centres unmarked) [Example 5, N-[3-(3-Aminophenoxy)propyl]-2,3-dihydro-6-hydroxy-1,4-benzodioxin-2-methanamine]	30%
Nc1cccc(OCCCNCC2COc3c(O)cccc3O2)c1 (centres unmarked) [Example 6, N-[3-(3-Aminophenoxy)propyl]-2,3-dihydro-5-hydroxy-1,4-benzodioxin-2-methanamine]	30%
Nc1cccc(OCCCNC[C@@H]2COc3ccc(O)cc3O2)c1 [Example 7, (R)-N-[3-(3-Aminophenoxy)propyl]-2,3-dihydro-7-hydroxy-1,4-benzodioxin-2-methanamine]	19%

Tested on: mouse locomotor activity
Experiment: Reduction of mouse locomotor activity (Martin and Bendensky)
Type: in vivo, mice (male, CF-1)
Details: Mus musculus, ip, horizontal activity counts 10 to 20 minutes after dosing, read-out: Hypolocomotion (ED50 mg/kg, ip)

SMILES	ED50
Nc1cccc(OCCCNCC2COc3ccc(O)cc3O2)c1 (centres unmarked) [Example 3, N-[3-(3-Aminophenoxy)propyl]-2,3-dihydro-7-hydroxy-1,4-benzodioxin-2-methanamine]	0.16 mg/kg
Nc1cccc(OCCCNC[C@H]2COc3ccc(O)cc3O2)c1 [Example 4, (S)-N-[3-(3-Aminophenoxy)propyl]-2,3-dihydro-7-hydroxy-1,4-benzodioxin-2-methanamine]	0.08 mg/kg
Nc1cccc(OCCCNC[C@@H]2COc3ccc(O)cc3O2)c1 [Example 7, (R)-N-[3-(3-Aminophenoxy)propyl]-2,3-dihydro-7-hydroxy-1,4-benzodioxin-2-methanamine]	1.34 mg/kg

Same assay, conditions: horizontal activity counts 10 to 20 minutes after dosing

SMILES	Hypolocomotion (ED50 mg/kg, ip)
Nc1cccc(OCCCNCC2COc3ccc(O)cc3O2)c1 (centres unmarked) [Example 3, N-[3-(3-Aminophenoxy)propyl]-2,3-dihydro-7-hydroxy-1,4-benzodioxin-2-methanamine]	0.15 mg/kg

Same assay, conditions: ip, horizontal activity counts 10 to 20 minutes after dosing, read-out: Hypolocomotion (ED50 mg/kg, ip)

SMILES	ED50
Nc1cccc(OCCCNCC2COc3ccccc3O2)c1 (centres unmarked) [Example 1, N-[3-(3-Aminophenoxy)propyl]-2,3-dihydro-1,4-benzodioxin-2-methanamine]	0.38 mg/kg
Nc1cccc(OCCCNC[C@H]2COc3ccccc3O2)c1 [Example 9, (S)-N-[3-(3-Aminophenoxy)propyl]-2,3-dihydro-1,4-benzodioxin-2-methanamine]	0.19 mg/kg
Nc1cccc(OCCCNCC2COc3cc4c(cc3O2)OCO4)c1 (centres unmarked) [Example 10, N-[3-(3-Aminophenoxy)propyl]-2,3-dihydro-6,7-methylenedioxy-1,4-benzodioxin-2-methanamine]	1.8 mg/kg
Nc1cccc(OCCCNCC2COc3ccc(F)cc3O2)c1 (centres unmarked) [Example 16, N-[3-(3-Aminophenoxy)propyl]-2,3-dihydro-7-fluoro-1,4-benzodioxin-2-methanamine]	1.4 mg/kg

Target: T1, dopamine D2 receptor (Rattus norvegicus, UniProt P61169)
T1 construct: homogenized limbic brain tissue is incubated with ^3 H-spiroperidol; from tissue; host or cells: homogenized limbic brain tissue
Experiment: Dopamine D2 receptor affinity, 3H-spiroperidol binding in homogenized limbic brain tissue
Details: % at 1.0 μM, read-out: Receptor Affinities D2 (% @ ( ) μM)

T1 sequence (P61169 whole entry): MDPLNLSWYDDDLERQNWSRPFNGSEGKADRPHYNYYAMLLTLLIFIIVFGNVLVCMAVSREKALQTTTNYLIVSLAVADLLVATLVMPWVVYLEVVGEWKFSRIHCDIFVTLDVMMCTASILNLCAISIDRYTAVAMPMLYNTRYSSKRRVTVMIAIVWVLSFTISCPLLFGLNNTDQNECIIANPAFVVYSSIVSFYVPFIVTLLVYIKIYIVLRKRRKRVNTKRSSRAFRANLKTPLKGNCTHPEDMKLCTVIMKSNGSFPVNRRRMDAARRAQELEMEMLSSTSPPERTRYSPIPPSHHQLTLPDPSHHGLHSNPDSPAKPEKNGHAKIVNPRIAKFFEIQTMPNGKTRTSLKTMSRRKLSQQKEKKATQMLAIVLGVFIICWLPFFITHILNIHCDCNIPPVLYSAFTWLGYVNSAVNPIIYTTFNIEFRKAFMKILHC

SMILES	inhibition at 1 µM
COc1ccc2c(c1)OC(CNCCCOc1cccc(N)c1)CO2 (centres unmarked) [Example 8, N-[3-(3-Aminophenoxy)propyl]-2,3-dihydro-7-methoxy-1,4-benzodioxin-2-methanamine]	48%

Same assay, conditions: read-out: Receptor Affinities D2 IC50

SMILES	IC50
Nc1cccc(OCCCNCC2COc3ccccc3O2)c1 (centres unmarked) [Example 1, N-[3-(3-Aminophenoxy)propyl]-2,3-dihydro-1,4-benzodioxin-2-methanamine]	525 nM

Target: T2, serotonin 5-HT1A receptor (Rattus norvegicus, UniProt P19327)
T2 construct: following the procedure of Hall et al., J. Neurochem; 44, 1685 (1985); from tissue
T2 sequence (P19327 1-422): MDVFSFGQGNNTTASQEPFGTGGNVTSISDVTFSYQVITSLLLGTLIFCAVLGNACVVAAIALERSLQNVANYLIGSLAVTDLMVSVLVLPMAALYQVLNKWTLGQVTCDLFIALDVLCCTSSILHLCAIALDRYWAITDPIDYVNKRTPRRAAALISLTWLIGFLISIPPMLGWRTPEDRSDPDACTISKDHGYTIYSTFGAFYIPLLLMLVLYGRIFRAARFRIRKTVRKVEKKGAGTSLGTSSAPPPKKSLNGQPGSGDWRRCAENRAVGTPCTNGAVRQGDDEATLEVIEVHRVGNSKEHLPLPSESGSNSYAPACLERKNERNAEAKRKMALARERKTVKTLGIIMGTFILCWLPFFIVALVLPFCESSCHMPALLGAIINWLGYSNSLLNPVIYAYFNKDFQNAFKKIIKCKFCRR
Experiment: Serotonin 5-HT1A receptor affinity, displacement of [3H]8-OHDPAT
Type: binding
Details: % at 0.1 μM, read-out: Receptor Affinities 5-HT1A (% @ ( ) μM)
Description: Affinity for the serotonin 5-HT1A receptor was established by testing the claimed compound's ability to displace [^3 H]8-OHDPAT (dipropylaminotetralin) from the 5-HT1A serotonin receptor following the procedure of Hall et al., J. Neurochem. 44, 1685 (1985). […] The anxiolytic activity of buspirone is believed to be, at least partially, due to its 5-HT1A receptor affinity (Vander Maclen et al., Eur. J. Pharmacol. 1986, 129 (1-2) 133-[…]).

SMILES	inhibition at 0.1 µM
COc1ccc2c(c1)OC(CNCCCOc1cccc(N)c1)CO2 (centres unmarked) [Example 8, N-[3-(3-Aminophenoxy)propyl]-2,3-dihydro-7-methoxy-1,4-benzodioxin-2-methanamine]	95%
Nc1cccc(OCCCNC[C@H]2COc3ccccc3O2)c1 [Example 9, (S)-N-[3-(3-Aminophenoxy)propyl]-2,3-dihydro-1,4-benzodioxin-2-methanamine]	100%
Nc1cccc(OCCCNCC2COc3cc4c(cc3O2)OCO4)c1 (centres unmarked) [Example 10, N-[3-(3-Aminophenoxy)propyl]-2,3-dihydro-6,7-methylenedioxy-1,4-benzodioxin-2-methanamine]	54%
Nc1cccc(OCCCNCC2COc3ccc(F)cc3O2)c1 (centres unmarked) [Example 16, N-[3-(3-Aminophenoxy)propyl]-2,3-dihydro-7-fluoro-1,4-benzodioxin-2-methanamine]	87%

Same assay, conditions: read-out: Receptor Affinities 5-HT1A IC50

SMILES	IC50
Nc1cccc(OCCCNCC2COc3ccccc3O2)c1 (centres unmarked) [Example 1, N-[3-(3-Aminophenoxy)propyl]-2,3-dihydro-1,4-benzodioxin-2-methanamine]	4 nM

Tested on: 5-HT1A receptor
Experiment: not given
Details: (-)-isomer versus dextrorotary isomer; Fozard et al.; cited from earlier work

SMILES	binding at the 5-HT1A receptor site relative to the dextrorotary isomer
O=C1CC2(CCCC2)CC(=O)N1CCCCNCC1COc2ccccc2O1 (single isomer, unassigned; (-)) [(-)-MDL 72832]	32 times

Same assay, conditions: in words; Fozard et al.; cited from earlier work

SMILES	5-HT1A receptor ligand character
O=C1CC2(CCCC2)CC(=O)N1CCCCNCC1COc2ccccc2O1 (centres unmarked) [MDL 72832, 8-[4-(1,4-benzodioxan-2-ylmethylamino)butyl]-8-azaspiro[4.5]decane-7,9-dione]	selective and stereospecific

Same assay, conditions: in words; standard for anxiolytic activity; cited from earlier work

SMILES	affinity for the 5-HT1A serotonin receptor subtype
O=C1CC2(CCCC2)CC(=O)N1CCCCN1CCN(c2ncccn2)CC1 [buspirone]	potent affinity

Reference: patent US5126366A, “Aminophenoxyalkyl derivatives of benzodioxan” (American Home Products Corporation, priority 1991, dated 1992)
